Among the data in patent US6759424B2, “Imidazolidine derivatives, their preparation, their use, and pharmaceutical preparations comprising them” (Aventis Pharma Deutschland GmbH, priority 1997, dated 2004) are IC50 values, retold here.

The assay concerns the target T1, interaction between VCAM-1 and VLA-4 (Homo sapiens, UniProt P05556+P13612).
T1 construct: supplied in their natural form as surface molecules on human U937 cells; host or cells: U937 cells carry VLA-4; The VCAM-1(1-3)-IgG partner was made by transient transfection of COS cells (ATCC CRL1651) and used as culture supernatant
Nature of the assay: U937/VCAM-1 cell adhesion test (adhesion of U937 cells to hVCAM-1(1-3)-IgG). As to conditions: human U937 cells adhering to hVCAM-1(1-3)-IgG; concentration giving 50% inhibition of adhesion. Type of assay: cell-based. An excerpt:
The test method used for the activity of the compounds of the formula I on the interaction between VCAM-1 and VLA-4 is an assay which is specific for this interaction. The cellular binding components, i.e., the VLA-4 integrins, are supplied in their natural form as surface molecules on human U937 cells (ATCC CRL 1593), which belong to the leucocytes group. The specific binding components used are genetically engineered recombinant soluble fusion proteins, consisting of the extracytoplasmatic domain of human VCAM-1 and the constant region of a human immunoglobulin of the subclass IgG1.
Assay for the Measurement of the Adhesion of U937 Cells (ATCC CRL 1593) to hVCAM-1 (1-3)-IgG
1. Preparation of Human VCAM-1(1-3)-IgG and Human CD4-IgG
A genetic construct for the expression of the extracellular domain of human VCAM-1, associated with the genetic sequence of the heavy chain of human immunoglobulin IgG1 (hinge, CH2 and CH3 regions), from Dr. Brian Seed, Massachusetts General Hospital, Boston, USA was employed (cf. Damle and Aruffo, Proc. Natl. Acad. Sci. USA 1991, 88, 6403-6407). The soluble fusion protein hVCAM-1(1-3)-IgG contained the three amino-terminal extracellular immunoglobulin-like domains of human VCAM-1 (Damle and Aruffo, Proc. Natl. Acad. Sci. USA 1991, 88, 6403). CD4-IgG (Zettlmeissl et al., DNA and Cell Biology 1990, 9, 347) served as a fusion protein for negative controls. The recombinant proteins were expressed as soluble proteins after DEAE/dextran-mediated DNA transfection in COS cells (ATCC CRL1651) according to standard procedures (Ausubel et al., Current Protocols in Molecular Biology, John Wiley & Sons, Inc., 1994).
2. Assay for the Measurement of the Adhesion of U937 Cells to hVCAM-1(1-3)-IgG
2.1 96-well microtiter test plates (Nunc Maxisorb) were incubated at room temperature for 1 hour with 100 μl/well of a goat-anti-human IgG antibody solution (10 μg/ml in 50 mM tris, pH 9.5). After removal of the antibody solution, washing was carried out once with PBS.
2.2 150 μl/well of a blocking buffer (1% BSA in PBS) was incubated on the plates at room temperature for 0.5 hour. After removal of the blocking buffer, washing was carried out once with PBS.
2.3 100 μl per well of a cell culture supernatant of transfected COS cells were incubated on the plates at room temperature for 1.5 hours. The COS cells were transfected with a plasmid which codes for the three N-terminal immunoglobulin-like domains of VCAM-1, coupled to the Fc part of human IgG, (hVCAM-1 (1-3)-IgG). The content of hVCAM-1 (1-3)-IgG was about 0.5-1 μg/ml. After removal of the culture supernatant washing was carried out once with PBS.
2.4 The plates were incubated at room temperature for 20 minutes with 100 μl/well of Fc receptor blocking buffer (1 mg/ml of γ-globulin, 100 mM NaCl, 100 μM MgCl2, 100 μM MnCl2, 100 μM CaCl2, 1 mg/ml of BSA in 50 mM HEPES, pH 7.5). After removal of the Fc receptor blocking buffer washing was carried out once with PBS.
2.5 20 μl of binding buffer (100 mM NaCl, 100 μM MgCl2, 100 μM MnCl2, 100 μM CaCl2, 1 mg/ml of BSA in 50 mM HEPES, pH 7.5) were initially introduced, and the substances to be tested were added in 10 μl of binding buffer and incubated for 20 minutes. The controls used were antibodies against VCAM-1 (BBT, No. BBA6) and against VLA-4 (Immunotech, No. 0764). […]

T1 sequence (P13612 34-1032): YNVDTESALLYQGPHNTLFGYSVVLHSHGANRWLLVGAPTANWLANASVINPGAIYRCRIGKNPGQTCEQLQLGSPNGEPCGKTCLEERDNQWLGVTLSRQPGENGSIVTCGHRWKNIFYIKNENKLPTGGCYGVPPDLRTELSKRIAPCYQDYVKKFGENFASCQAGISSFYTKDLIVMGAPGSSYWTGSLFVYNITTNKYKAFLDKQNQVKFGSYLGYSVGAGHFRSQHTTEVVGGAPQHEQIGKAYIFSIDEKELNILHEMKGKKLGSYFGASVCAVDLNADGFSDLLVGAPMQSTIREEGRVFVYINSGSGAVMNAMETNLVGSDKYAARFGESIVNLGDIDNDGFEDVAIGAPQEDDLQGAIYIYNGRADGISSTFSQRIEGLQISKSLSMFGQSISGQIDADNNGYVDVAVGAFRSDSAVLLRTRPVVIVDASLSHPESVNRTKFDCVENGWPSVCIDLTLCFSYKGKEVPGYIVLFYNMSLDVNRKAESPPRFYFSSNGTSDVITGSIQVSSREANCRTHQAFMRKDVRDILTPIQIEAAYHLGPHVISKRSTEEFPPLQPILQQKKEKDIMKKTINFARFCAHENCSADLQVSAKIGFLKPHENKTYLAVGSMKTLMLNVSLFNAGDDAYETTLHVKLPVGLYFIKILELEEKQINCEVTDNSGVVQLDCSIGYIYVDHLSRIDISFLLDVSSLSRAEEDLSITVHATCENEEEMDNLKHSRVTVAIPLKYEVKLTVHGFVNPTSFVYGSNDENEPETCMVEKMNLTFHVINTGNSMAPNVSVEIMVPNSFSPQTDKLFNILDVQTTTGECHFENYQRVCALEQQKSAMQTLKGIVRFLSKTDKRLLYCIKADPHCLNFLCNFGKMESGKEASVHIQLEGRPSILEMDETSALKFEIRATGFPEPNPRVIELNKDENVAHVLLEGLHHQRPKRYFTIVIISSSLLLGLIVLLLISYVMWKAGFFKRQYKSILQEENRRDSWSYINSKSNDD
T1 sequence (P05556 21-798): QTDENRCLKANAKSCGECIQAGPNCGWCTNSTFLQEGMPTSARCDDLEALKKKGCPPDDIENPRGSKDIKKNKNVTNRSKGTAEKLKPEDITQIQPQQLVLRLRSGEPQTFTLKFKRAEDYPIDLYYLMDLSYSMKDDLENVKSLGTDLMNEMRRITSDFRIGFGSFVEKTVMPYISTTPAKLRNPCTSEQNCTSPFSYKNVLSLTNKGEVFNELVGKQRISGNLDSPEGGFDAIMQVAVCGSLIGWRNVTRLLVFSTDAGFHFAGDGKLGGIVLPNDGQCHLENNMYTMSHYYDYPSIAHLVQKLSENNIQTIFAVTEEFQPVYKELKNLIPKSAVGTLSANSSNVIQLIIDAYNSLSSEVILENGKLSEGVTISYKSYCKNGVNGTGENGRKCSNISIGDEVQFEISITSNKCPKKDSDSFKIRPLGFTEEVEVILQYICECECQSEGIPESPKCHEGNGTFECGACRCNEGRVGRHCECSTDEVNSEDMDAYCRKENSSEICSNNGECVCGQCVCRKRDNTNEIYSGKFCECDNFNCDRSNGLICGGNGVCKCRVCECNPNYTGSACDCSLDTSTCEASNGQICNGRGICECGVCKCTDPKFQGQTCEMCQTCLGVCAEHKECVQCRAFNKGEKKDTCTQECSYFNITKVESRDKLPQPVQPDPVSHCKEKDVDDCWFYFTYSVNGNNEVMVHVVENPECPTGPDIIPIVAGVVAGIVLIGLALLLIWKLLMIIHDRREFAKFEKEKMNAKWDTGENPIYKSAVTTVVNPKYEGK

With `CC(C)C(C(=O)NC[C@H](NC(=O)OCC12CC3CC(CC(C3)C1)C2)C(=O)O)N1C(=O)N(Cc2ccccc2)C(C)(c2ccccc2)C1=O` (stereo partly drawn) [Example 4, (S)-3-((R,S)-2-((R,S)-4-Phenyl-3-benzyl-4-methyl-2,5-dioxoimidazolidin-1-yl)-2-isopropylacetylamino)-2-(1-adamantylmethyloxycarbonylamino)-propionic acid], the midpoint of inhibition, the IC50, lay at 45 µM. In the case of `CC1(c2ccccc2)C(=O)N(CC(=O)N[C@@H](CC(=O)O)C(=O)N[C@H](C(=O)O)c2ccccc2)C(=O)N1Cc1ccccc1` (stereo partly drawn) [Example 7, ((R,S)-4-Phenyl-3-benzyl-4-methyl-2,5-dioxoimidazolidin-1-yl)acetyl-L-aspartyl-L-phenylglycine], the IC50 was found to be 8 µM. This IC50 lies about 5.6-fold lower than the previous one. The compound `C[C@]1(c2ccc(CO)cc2)C(=O)N(CC(=O)N[C@@H](CC(=O)O)C(=O)N[C@H](C(=O)O)c2ccccc2)C(=O)N1Cc1ccccc1` [Example 8, ((S)-4-(4-Hydroxymethylphenyl)-3-benzyl-4-methyl-2,5-dioxoimidazolidin-1-yl)acetyl-L-aspartyl-L-phenylglycine] had an IC50 of 4.5 µM. In the case of `C[C@]1(c2ccc(CO)cc2)C(=O)N(CC(=O)NC[C@H](NC(=O)OCC23CC4CC(CC(C4)C2)C3)C(=O)O)C(=O)N1Cc1ccccc1` [Example 9, (S)-3-(((S)-4-(4-Hydroxymethylphenyl)-3-benzyl-4-methyl-2,5-dioxoimidazolidin-1-yl)acetylamino)-2-(1-adamantylmethyloxycarbonylamino)propionic acid], half-maximal inhibition (IC50) was put at 4 µM. In the case of `CC1(c2ccc(O)cc2)C(=O)N(CC(=O)N[C@@H](CC(=O)O)C(=O)N[C@H](C(=O)O)c2ccccc2)C(=O)N1Cc1ccccc1` (stereo partly drawn) [Example 10, ((R,S)-4-(4-Hydroxyphenyl)-3-benzyl-4-methyl-2,5-dioxoimidazolidin-1-yl)acetyl-L-aspartyl-L-phenylglycine], the midpoint of inhibition, the IC50, lay at 9.5 µM.

As usually defined, the IC50 is the concentration needed to halve the response being measured. Low values mean higher potency, high ones lower potency.
